From patent publication US10301353B2, “Co-crystal of carfilzomib with maleic acid and process for the preparation of pure carfilzomib” (DR. REDDY'S LABORATORIES LIMITED, priority 2014, dated 2019)

Tests used:
[1] = storage stability of amorphous carfilzomib; type: physicochemical; conditions: at 2-8° C.
Description: Carfilzomib amorphous form obtained according to the process of the present application is stable at 2-8° C. for extended periods, i.e., more than 3 month.

proteasome = conditions: in animals; cited from earlier work
[2] = system: solid and hematologic tumor cells; conditions: cited from earlier work
[3] = system: models of multiple myeloma, hematologic, and solid tumors; conditions: in animals; cited from earlier work

Compound	stable for extended periods [1]	proteasome activity in blood and tissue (proteasome)	activity in vitro in tumor cells [2]	tumor growth [3]
CC(C)C[C@H](NC(=O)[C@H](CCc1ccccc1)NC(=O)CN1CCOCC1)C(=O)N[C@@H](Cc1ccccc1)C(=O)N[C@@H](CC(C)C)C(=O)[C@@]1(C)CO1 [Carfilzomib amorphous form]	more than 3 month			
CC(C)C[C@H](NC(=O)[C@H](CCc1ccccc1)NC(=O)CN1CCOCC1)C(=O)N[C@@H](Cc1ccccc1)C(=O)N[C@@H](CC(C)C)C(=O)[C@@]1(C)CO1 [Carfilzomib, (2S)—N—((S)-1-((S)-4-methyl-1-((R)-2-methyloxiran-2-yl)-1-oxopentan-2-ylcarbamoyl)-2-phenylethyl)-2-((S)-2-(2-morpholinoacetamido)-4-phenylbutanamido)-4-methylpentanamide]		inhibited proteasome activity	antiproliferative and proapoptotic activities	delayed tumor growth
